From US20060199856A1, “Novel compounds as anti-inflammatory, immunomodulatory and anti-proliferatory agents” (4 SC AG, priority 2001, published 2006) come the findings set out here.

One experiment deals with T1, recombinant human DHODH (Homo sapiens, UniProt Q02127).
T1 construct: provided by Prof; M. Löffler, Marburg, Germany (gift, not purchased)
Briefly: Inhibition assay of DHODH activity (human enzyme). In kind it is biochemical. As for the experimental part: (§1) The standard assay mixture contained 50 μM decyclo ubichinone, 100 μM dihydroorotate, 60 μM 2,6-dichloroindophenol, as well as 20 mU DHODH. The volume activity of the recombinant enzyme used was 30 U/ml. Measurements were conducted in 50 mM TrisHCl (150 mM KCl, 0,1% Triton X-100, pH. 8,0) at 30° C. in a final volume of 1 ml. The components were mixed, and the reaction was started by adding dihydroorotate. The course of reaction was followed by spectrophotometrically measuring the decrease in absorption at 600 nm for 2 min.
(§2) Inhibitory studies were conducted in a standard assay with additional variable amounts of inhibitor.
(§3) These investigations were carried out with recombinant human as well as with recombinant murine DHODH provided by Prof. M. Löffler, Marburg, Germany [M. Löffler, Chem. Biol. Interact.

The target in a further experiment is T2, recombinant murine DHODH (Mus musculus, UniProt O35435).
T2 construct: provided by Prof; M. Löffler, Marburg, Germany (gift, not purchased)
Briefly: Inhibition assay of DHODH activity (murine enzyme). Format: biochemical. As for the experimental part:
as §1, §2, §3

The subject of experiment [1] is human lymphocyte cell proliferation. Briefly: Proliferation Assay of Human T-Cells. Format: cell-based. The following applies: 100 μM, activated human MNC, 48 hours. As for the experimental part:
Buffy coats of healthy donors were obtained from the local Red Cross; from these human mononuclear cells (MNC) were isolated using Accuspin™ System-Histopaque-1077 (Sigma) according to the protocol recommended by the manufacturer. Cells were seeded at densities of 5×10^4 or 1×10^5 cells per well in 96 well flat bottom plates in RPMI 1640 supplemented with 10% fetal calf serum, 2 mM L-glutamine and penicillin/streptomycin. Cells were activated with 1 μg/ml phytohaemagglutinin (PHA, Sigma) or 20 nM PMA (phorbol-12-myristate-13-acetate)/10 μM ionomycin (Calbiochem) and incubated with the test compounds in a final volume of 100 μl for 48 hours. Proliferation was measured using the CellTiter 96® Aqueous One Solution Cell Proliferation Assay (Promega) according to the lymphocyte assay protocol supplied by the manufacturer.

In the next experiment the target is DHODH (Rattus norvegicus, UniProt Q63707). The experiment can be described thus: Inhibition assay of DHODH activity (rat enzyme, head printed 'rate'). In kind it is biochemical. The following applies: class symbols (in nM); read-out: rate IC50-Value. As for the experimental part:
as §1, §2

Setting [2] is: recombinant human DHODH, numeric values, read-out: human IC50-Value.

Read-outs that look alike come from different tables or passages of the source.

T2 sequence (O35435 whole entry): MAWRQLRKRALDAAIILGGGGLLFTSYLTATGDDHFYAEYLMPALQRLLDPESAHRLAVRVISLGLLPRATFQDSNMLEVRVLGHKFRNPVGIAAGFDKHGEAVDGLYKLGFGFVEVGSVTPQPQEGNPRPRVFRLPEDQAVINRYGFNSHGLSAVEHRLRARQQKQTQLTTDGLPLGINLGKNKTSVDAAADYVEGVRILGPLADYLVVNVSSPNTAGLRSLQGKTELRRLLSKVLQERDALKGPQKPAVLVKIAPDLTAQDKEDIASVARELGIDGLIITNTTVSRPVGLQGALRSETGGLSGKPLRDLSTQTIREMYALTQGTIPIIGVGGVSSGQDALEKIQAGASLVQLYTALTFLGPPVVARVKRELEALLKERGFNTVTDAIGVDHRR
T1 sequence (Q02127 whole entry): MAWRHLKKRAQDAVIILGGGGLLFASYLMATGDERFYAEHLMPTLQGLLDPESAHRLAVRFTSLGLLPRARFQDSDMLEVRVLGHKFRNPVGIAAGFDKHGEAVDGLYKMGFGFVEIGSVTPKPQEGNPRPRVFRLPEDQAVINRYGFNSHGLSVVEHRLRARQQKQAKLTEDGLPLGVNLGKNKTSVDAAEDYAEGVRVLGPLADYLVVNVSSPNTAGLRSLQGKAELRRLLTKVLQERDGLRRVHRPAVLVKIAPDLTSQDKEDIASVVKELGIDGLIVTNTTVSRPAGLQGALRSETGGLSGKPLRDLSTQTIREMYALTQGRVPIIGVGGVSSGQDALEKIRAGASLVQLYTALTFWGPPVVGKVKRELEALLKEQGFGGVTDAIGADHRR
Sequence of DHODH (Q63707 whole entry): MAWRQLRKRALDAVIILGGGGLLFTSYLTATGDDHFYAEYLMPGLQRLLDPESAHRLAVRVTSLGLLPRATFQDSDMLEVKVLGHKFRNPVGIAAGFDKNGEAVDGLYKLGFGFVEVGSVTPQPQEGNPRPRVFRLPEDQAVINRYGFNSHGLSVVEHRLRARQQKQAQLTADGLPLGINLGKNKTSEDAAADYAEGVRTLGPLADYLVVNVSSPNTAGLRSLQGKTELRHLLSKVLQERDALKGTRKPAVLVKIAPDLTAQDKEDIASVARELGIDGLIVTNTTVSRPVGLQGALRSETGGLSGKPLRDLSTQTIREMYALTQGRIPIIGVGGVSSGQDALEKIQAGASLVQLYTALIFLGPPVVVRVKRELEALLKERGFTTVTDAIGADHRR

On to `O=C(O)C1=C(C(=O)Nc2ccc(-c3ccccc3)cc2)CCC1` [Compound 02, 2-(Biphenyl-4-ylcarbamoyl)-cyclopent-1-enecarboxylic acid], for which the figures for the IC50 on recombinant human DHODH and at recombinant murine DHODH (numeric values or words) were 690 nM and 4000 nM, respectively. Further, the “reduction of human lymphocyte cell proliferation” value in experiment [1] stood at 40%.
`O=C(O)C1=C(C(=O)Nc2ccc3c(c2)S(=O)(=O)c2cc(NC(=O)C4=C(C(=O)O)CCC4)ccc2C3)CCC1` [Compound 05]: the IC50 at recombinant human DHODH (setting [2]) worked out at 1100 nM. The “murine IC50-Value” at recombinant murine DHODH (numeric values or words) is on record as “weakley active”.
On to `O=C(O)C1=C(C(=O)Nc2ccc(C(F)(F)F)cc2)CCC1` [Compound 08], for which the IC50 is 1600 nM at recombinant human DHODH (setting [2]) and 930 nM at recombinant murine DHODH (numeric values or words).
As for `O=C(O)C1=C(C(=O)Nc2cccc(C(F)(F)F)c2)CCC1` [Compound 09], the IC50 at recombinant human DHODH (setting [2]) worked out at 6800 nM; at recombinant murine DHODH (numeric values or words), 55000 nM.
`COc1ccccc1-c1ccc(OC(=O)C2=C(C(=O)O)CCC2)c(F)c1` [Compound 76]: the IC50 at recombinant human DHODH (recombinant human DHODH, class symbols (in nM), read-out: human IC50-Value) is under 800 nM; at recombinant murine DHODH (class symbols (in nM)), 800 to 1500 nM; on DHODH, under 800 nM.
